Source: ChEMBL document CHEMBL5608189, “Design and synthesis of unique indole-benzosulfonamide oleanolic acid derivatives as potent antibacterial agents against MRSA” (Eur J Med Chem, 2024)
Values after ≈ are worked out from the molar mass of the structure shown.

Columns and labels:
Assay type in all cases: functional
[1] = system: Staphylococcus aureus; test: Antibacterial activity against Staphylococcus aureus ATCC 6538 measured after 24 hrs by susceptibility assay
[2] = system: Staphylococcus epidermidis; test: Antibacterial activity against Staphylococcus epidermidis ATCC 12228 measured after 24 hrs by susceptibility assay
[3] = system: Staphylococcus aureus; test: Antibacterial activity against methicillin-resistant Staphylococcus aureus measured after 24 hrs by susceptibility assay
[4] = system: Staphylococcus aureus; test: Antibacterial activity against Staphylococcus aureus ATCC 29213 measured after 24 hrs by susceptibility assay

| Compound | MIC [1] | MIC [2] | MIC [3] | MIC [4] |
| --- | --- | --- | --- | --- |
| CN[C@H](CC(C)C)C(=O)N[C@H]1C(=O)N[C@@H](CC(N)=O)C(=O)N[C@H]2C(=O)N[C@H]3C(=O)N[C@H](C(=O)N[C@H](C(=O)O)c4cc(O)cc(O)c4-c4cc3ccc4O)[C@H](O)c3ccc(c(Cl)c3)Oc3cc2cc(c3O[C@@H]2O[C@H](CO)[C@@H](O)[C@H](O)[C@H]2O[C@H]2C[C@](C)(N)[C@H](O)[C@H](C)O2)Oc2ccc(cc2Cl)[C@H]1O [VANCOMYCIN] | 0.5 µM (≈ 0.725 µg/mL) | 0.5 µM (≈ 0.725 µg/mL) | 0.5 µM (≈ 0.725 µg/mL) | 0.5 µM (≈ 0.725 µg/mL) |
| COc1ccc(S(=O)(=O)NC(=O)[C@]23CCC(C)(C)C[C@H]2C2=CC[C@@H]4[C@@]5(C)Cc6c([nH]c7cccc(C(=O)O)c67)C(C)(C)[C@@H]5CC[C@@]4(C)[C@]2(C)CC3)cc1 | 2 µM (≈ 1.48 µg/mL) | 4 µM (≈ 2.96 µg/mL) | 4 µM (≈ 2.96 µg/mL) | 8 µM (≈ 5.93 µg/mL) |
| Cc1ccc(S(=O)(=O)NC(=O)[C@]23CCC(C)(C)C[C@H]2C2=CC[C@@H]4[C@@]5(C)Cc6c([nH]c7cc(C(=O)O)ccc67)C(C)(C)[C@@H]5CC[C@@]4(C)[C@]2(C)CC3)cc1 | 1 µM (≈ 0.725 µg/mL) | 1 µM (≈ 0.725 µg/mL) | 2 µM (≈ 1.45 µg/mL) | 2 µM (≈ 1.45 µg/mL) |
| CC1(C)CC[C@]2(C(=O)NS(=O)(=O)c3ccccc3)CC[C@]3(C)C(=CC[C@@H]4[C@@]5(C)Cc6c([nH]c7ccc(Cl)cc67)C(C)(C)[C@@H]5CC[C@]43C)[C@@H]2C1 | > 256 µM | > 256 µM | > 256 µM | > 256 µM |
| CC1(C)CC[C@]2(C(=O)NS(=O)(=O)c3ccccc3)CC[C@]3(C)C(=CC[C@@H]4[C@@]5(C)Cc6c([nH]c7ccc(F)cc67)C(C)(C)[C@@H]5CC[C@]43C)[C@@H]2C1 | > 256 µM | > 256 µM | > 256 µM | > 256 µM |
| CC1(C)CC[C@]2(C(=O)Nc3ccc(-c4ccccc4)cc3)CC[C@]3(C)C(=CC[C@@H]4[C@@]5(C)Cc6c([nH]c7c(C(=O)O)cccc67)C(C)(C)[C@@H]5CC[C@]43C)[C@@H]2C1 | > 256 µM | > 256 µM | > 256 µM | > 256 µM |
| CN1CCN(C(=O)[C@]23CCC(C)(C)C[C@H]2C2=CC[C@@H]4[C@@]5(C)Cc6c([nH]c7ccc(C(=O)O)cc67)C(C)(C)[C@@H]5CC[C@@]4(C)[C@]2(C)CC3)CC1 | > 256 µM | > 256 µM | > 256 µM | > 256 µM |
| COc1ccc(S(=O)(=O)NC(=O)[C@]23CCC(C)(C)C[C@H]2C2=CC[C@@H]4[C@@]5(C)CCC(=O)C(C)(C)[C@@H]5CC[C@@]4(C)[C@]2(C)CC3)cc1 | > 256 µM | > 256 µM | > 256 µM | > 256 µM |
| CC1(C)CC[C@]2(C(=O)NS(=O)(=O)c3ccc(C(=O)O)cc3)CC[C@]3(C)C(=CC[C@@H]4[C@@]5(C)Cc6c([nH]c7ccc(C(=O)O)cc67)C(C)(C)[C@@H]5CC[C@]43C)[C@@H]2C1 | 64 µM (≈ 48.3 µg/mL) | 64 µM (≈ 48.3 µg/mL) | 64 µM (≈ 48.3 µg/mL) | 64 µM (≈ 48.3 µg/mL) |
| Cc1ccc(S(=O)(=O)NC(=O)[C@]23CCC(C)(C)C[C@H]2C2=CC[C@@H]4[C@@]5(C)Cc6c([nH]c7ccc(C(=O)O)cc67)C(C)(C)[C@@H]5CC[C@@]4(C)[C@]2(C)CC3)cc1 | 1 µM (≈ 0.725 µg/mL) | 1 µM (≈ 0.725 µg/mL) | 2 µM (≈ 1.45 µg/mL) | 1 µM (≈ 0.725 µg/mL) |
| CC1(C)CC[C@]2(C(=O)Nc3ccc(-c4ccccc4)cc3)CC[C@]3(C)C(=CC[C@@H]4[C@@]5(C)Cc6c([nH]c7cc(C(=O)O)ccc67)C(C)(C)[C@@H]5CC[C@]43C)[C@@H]2C1 | > 256 µM | > 256 µM | > 256 µM | > 256 µM |
| CC1(C)CC[C@]2(C(=O)NS(=O)(=O)c3ccc(Cl)cc3)CC[C@]3(C)C(=CC[C@@H]4[C@@]5(C)Cc6c([nH]c7cccc(C(=O)O)c67)C(C)(C)[C@@H]5CC[C@]43C)[C@@H]2C1 | 1 µM (≈ 0.745 µg/mL) | 2 µM (≈ 1.49 µg/mL) | 2 µM (≈ 1.49 µg/mL) | 2 µM (≈ 1.49 µg/mL) |
| Cc1ccc(S(=O)(=O)NC(=O)[C@]23CCC(C)(C)C[C@H]2C2=CC[C@@H]4[C@@]5(C)CCC(=O)C(C)(C)[C@@H]5CC[C@@]4(C)[C@]2(C)CC3)cc1 | > 256 µM | > 256 µM | > 256 µM | > 256 µM |
